Twelve compounds from patent US4005096A, “Therapeutically active phenoxyalkylamines” (Biersdorf Aktiengesellschaft, priority 1973, dated 1977) can be followed below.

Counter-ions that a name gives are not always drawn. Like-named read-outs stand apart in the source and are kept apart here.

The nature of data set [1]: acute toxicity (LD50 Mouse), Litchfield and Wilcoxon. As to conditions: in vivo. The source says:
Tests to determine the toxicity have been carried out. In each case 6 mice were given a particular dose of the compound to be tested combined with a suitable neutral diluent, administration being carried out perorally, intraveneously and/or intraperitoneally.
The statistical evaluation took place according to the method of J. F. Litchfield, Jr. and F. Wilcoxon in: "Journal of Pharmacology and Experimental Therapeutics", Volume 96 (1949), pages 99-113.
In the following Table II the toxicity of Compounds A to M are given.

Data set [2] concerns rats having artificially promoted high blood pressure (according to Goldblatt). Put plainly: blood pressure reduction in rats having artificially promoted high blood pressure (according to Goldblatt), plethysmographic at base of tail. The data set is classed as in vivo. As to conditions: Rattus norvegicus, single dose; for change in vivo at 20 mg/kg: 20 mg/kg p.o. Here is the method: To show the blood pressure reducing properties of typical compounds according to the invention, products of the Examples were administered, to rats having artificially promoted high blood pressure (according to Goldblatt), in the form of solution either by injection under the skin of the back (subcutaneously) or by means of a stomach tube (perorally). 1,2.5 and 4 hours (and 1.75 hours in the case of Compound A) after administration of the substance the systolic and diastolic blood pressures were measured plethysmographically at the base of the tail of the rat. In the following Table I there is given for each of the individual compounds (designated A to M) the average value of the blood pressure in mm Hg before the administration of the compound, the time (determined from the measuring time) of maximum blood pressure reduction and the maximum reduction of the systolic and diastolic blood pressures expressed as a percentage of the initial value after a single administration of the dose.

Where [3] appears, read: sc, 10 mg/kg s.c., at the time given in the same line, read-out: Maximum blood pressure reduction, diastolic (percent of initial value).
Where [4] appears, read: sc, 10 mg/kg s.c., at the time given in the same line, read-out: Maximum blood pressure reduction, systolic (percent of initial value).

Regarding `COc1ccccc1OCCNCc1ccccn1` [Compound D, N-(2-Pyridyl-methyl)-o-methoxy-phenoxyethylamine. 2 HCl], the LD50 in data set [1] (ip) amounted to 150 mg/kg; in data set [1] (iv), 51 mg/kg; in data set [1] (po), 750 mg/kg. Also, the change in vivo at 10 mg/kg in data set [2] (setting [3]) was -25%; in data set [2] (setting [4]), -22%.

For `Clc1ccccc1OCCCCNCCc1ccncc1` [Compound K, N-[4-Pyridyl-ethyl(2)]-o-chloro-phenoxybutylamine dioxalate monohydrate], the LD50 in data set [1] (ip) was found to be 182 mg/kg; in data set [1] (po) it was 235 mg/kg. In addition, the change in vivo at 10 mg/kg was -19% in data set [2] (setting [3]) and -15% in data set [2] (setting [4]).

In the case of `COc1ccccc1OCCNCCc1ccccn1` [Compound B, N-[2-Pyridyl-ethyl(2)]-o-methoxy-phenoxyethylamine . 2 HCl], the LD50 came out at 150 mg/kg in data set [1] (ip) and 31.5 mg/kg in data set [1] (iv). For the same compound, the change in vivo at 10 mg/kg in data set [2] (setting [3]) is -23%; in data set [2] (setting [4]), -20%.

For the compound `Clc1ccccc1OCCNCCc1ccncc1` [Compound G, N-[4-Pyridyl-ethyl(2)]-o-chloro-phenoxyethylamine dioxalate dihydrate], the LD50 in data set [1] (ip) is about 200 mg/kg; in data set [1] (iv) it was 71.7 mg/kg.

For the compound `COc1ccccc1OCCNCc1ncccc1O.Cl.Cl` [Compound M, N-[(3-Hydroxy-2-pyridyl)-methyl]-o-methoxy-phenoxyethylamine dihydrochloride], the LD50 in data set [1] (iv) is 55.6 mg/kg. Also, the change in vivo at 10 mg/kg in data set [2] (setting [3]) was -12%; in data set [2] (setting [4]), -11%.

Take `Cc1cccnc1CNCCOc1ccccc1C#N` [Compound J, N-[(3-Methyl-2-pyridyl)-methyl]-o-cyano-phenoxyethylamineoxalate hydrate]: the figures for the LD50 in data set [1] (iv) and in data set [1] (po) were 73.3 mg/kg and 660 mg/kg, respectively. Further, the change in vivo at 10 mg/kg in data set [2] (setting [3]) was -12%; in data set [2] (setting [4]), -11%.

For the compound `N#Cc1ccccc1OCCNCCc1ccncc1` [Compound L, N-[4-Pyridyl-ethyl(2)]-o-cyano-phenoxyethylamine dioxalate hydrate], the LD50 turned out to be 91 mg/kg in data set [1] (ip) and 245 mg/kg in data set [1] (po). Further, the change in vivo at 10 mg/kg in data set [2] (setting [3]) is -19%; in data set [2] (setting [4]) it was -17%.

As to `COc1ccccc1OCCNCc1ccncc1` [Compound E, N-(4-Pyridyl-methyl)-o-methoxy-phenoxyethylamine . 2 HCl], the results for the LD50 in data set [1] (ip), in data set [1] (iv) and in data set [1] (po) were 364 mg/kg, 90.1 mg/kg and 730 mg/kg, respectively. For the same compound, the change in vivo at 10 mg/kg is -22% in data set [2] (po, 10 mg/kg p.o., read-out: Maximum blood pressure reduction, diastolic (percent of initial value)); -20% in data set [2] (po, 10 mg/kg p.o., read-out: Maximum blood pressure reduction, systolic (percent of initial value)); -18% in data set [2] (setting [3]); -15% in data set [2] (setting [4]).

Turning to `Cc1cccnc1CNCCOc1ccccc1Cl` [Compound H, N-[(3-Methyl-2-pyridyl)-methyl]-o-chloro-phenoxyethylamineoxalate hydrate], the LD50 in data set [1] (ip) stood at 220 mg/kg; in data set [1] (iv) it was 50 mg/kg. Also, the change in vivo at 10 mg/kg in data set [2] (setting [3]) and in data set [2] (setting [4]) was -16% in each case.

As for `Clc1ccccc1OCCCNCCc1ccncc1` [Compound F, N-[4-Pyridyl-ethyl(2)]-o-chloro-phenoxypropylamine dioxalate dihydrate], the LD50 in data set [1] (ip) was over 800 mg/kg.

As for `COc1ccccc1OCCNCc1cccnc1` [Compound C, N-(3-Pyridyl-methyl)-o-methoxy-phenoxyethylamine .2 HCl], the LD50 came to 150 mg/kg in data set [1] (ip), 73.3 mg/kg in data set [1] (iv) and 390 mg/kg in data set [1] (po). Besides, the change in vivo at 10 mg/kg in data set [2] (setting [3]) was -16%; in data set [2] (setting [4]) it was -15%.

On to `COc1ccccc1OCCNCCc1ccncc1` [Compound A, N-[4-Pyridyl-ethyl(2)]-o-methoxy-phenoxyethylamine.2 HCl], for which the LD50 worked out at 150 mg/kg in data set [1] (ip), 53.5 mg/kg in data set [1] (iv) and 290 mg/kg in data set [1] (po). The change in vivo at 20 mg/kg is -32% in data set [2] (po, read-out: Maximum blood pressure reduction, diastolic (percent of initial value)) and -28% in data set [2] (po, read-out: Maximum blood pressure reduction, systolic (percent of initial value)). For the same compound, the change in vivo at 10 mg/kg is -34% in data set [2] (setting [3]) and -25% in data set [2] (setting [4]).
